Target: T1, recombinant human GS (GSH synthetase, glutathione synthetase) (Homo sapiens, UniProt P48637)
T1 construct: gene GSS; commercial recombinant protein (Abcam, Cambridge, UK), labelled on amines with BLUE-NHS dye
T1 sequence (P48637 2-474): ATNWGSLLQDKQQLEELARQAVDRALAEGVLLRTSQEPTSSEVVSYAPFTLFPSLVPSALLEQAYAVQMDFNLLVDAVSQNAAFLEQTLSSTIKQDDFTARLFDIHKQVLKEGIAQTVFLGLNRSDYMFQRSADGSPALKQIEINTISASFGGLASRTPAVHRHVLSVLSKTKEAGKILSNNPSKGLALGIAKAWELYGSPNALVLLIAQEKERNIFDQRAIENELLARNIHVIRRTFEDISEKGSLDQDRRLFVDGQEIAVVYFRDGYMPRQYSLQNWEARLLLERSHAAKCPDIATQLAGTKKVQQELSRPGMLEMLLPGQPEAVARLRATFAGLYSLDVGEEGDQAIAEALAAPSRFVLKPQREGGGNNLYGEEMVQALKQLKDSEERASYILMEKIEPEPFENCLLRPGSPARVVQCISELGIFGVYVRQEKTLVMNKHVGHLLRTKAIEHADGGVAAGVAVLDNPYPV
Assay: microscale thermophoresis, BLUE-NHS labelled protein
Details: read-out: equilibrium binding constant

Kd: 5.64 µM
SMILES: O=C(Nc1ccc([N+](=O)[O-])cc1Cl)c1cc(Cl)ccc1O [niclosamide]
